Read-outs that look alike come from different tables or passages of the source.
Test system: anthelmintic/nematicide-resistant C. elegans mutant strains
Experiment: microbe, parasite or virus in culture
Settings: Caenorhabditis elegans

## C=C(C)[C@H]1Cc2c(ccc3c2O[C@@H]2COc4cc(OC)c(OC)cc4[C@@H]2C3=O)O1 [Rotenone, reference compound]
read-out: C. elegans Development & Viability LC50, acr-23(ok2804)
  LC50: 2100 nM
read-out: C. elegans Development & Viability LC50, avr-14(ad1302), avr-15(ad1051), glc-1(pk54)
  LC50: 1400 nM
read-out: C. elegans Development & Viability LC50, ben-1(e1880)
  LC50: 3400 nM
read-out: C. elegans Development & Viability LC50, bre-1(ye4)
  LC50: 3500 nM
read-out: C. elegans Development & Viability LC50, mev-1(tr355)
  LC50: 3200 nM
read-out: C. elegans Development & Viability LC50, slo-1(js379)
  LC50: 1000 nM
read-out: C. elegans Development & Viability LC50, unc-29(e193)
  LC50: 1500 nM

— PMC11079024, “Identification of a family of species-selective complex I inhibitors as potential anthelmintics” (Nature Communications, 2024)
